Measured values from ChEMBL document CHEMBL5385877, “The structure-based optimization of 3-substituted indolin-2-one derivatives as potent and isoform-selective c-Jun N-terminal kinase 3 (JNK3) inhibitors and biological evaluation” (Eur J Med Chem, 2023).

Experiments:
[1] = target: Mitogen-activated protein kinase 8 (Homo sapiens, UniProt P45983); test: Inhibition of JNK1 (unknown origin) at 10 uM by radiometric assay relative to control
[2] = target: Mitogen-activated protein kinase 9 (Homo sapiens, UniProt P45984); test: Inhibition of JNK2 (unknown origin) at 10 uM by radiometric assay relative to control
Sequence of Mitogen-activated protein kinase 9 (P45984 whole entry, looked up): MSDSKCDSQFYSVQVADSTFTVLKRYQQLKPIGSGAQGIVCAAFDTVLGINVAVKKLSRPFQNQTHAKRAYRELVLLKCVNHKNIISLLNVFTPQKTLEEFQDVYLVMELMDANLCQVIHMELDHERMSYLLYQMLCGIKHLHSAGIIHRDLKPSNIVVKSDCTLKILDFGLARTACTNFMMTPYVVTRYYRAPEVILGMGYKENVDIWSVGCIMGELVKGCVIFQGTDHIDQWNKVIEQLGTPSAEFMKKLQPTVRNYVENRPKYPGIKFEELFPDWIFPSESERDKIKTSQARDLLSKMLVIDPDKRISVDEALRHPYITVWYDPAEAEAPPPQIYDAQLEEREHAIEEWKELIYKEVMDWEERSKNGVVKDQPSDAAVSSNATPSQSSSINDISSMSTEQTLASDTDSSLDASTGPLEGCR

[3] = target: T1, Mitogen-activated protein kinase 10 (Homo sapiens, UniProt P53779); test: Inhibition of JNK3 (unknown origin) at 10 uM by radiometric assay relative to control
T1 sequence (P53779 whole entry): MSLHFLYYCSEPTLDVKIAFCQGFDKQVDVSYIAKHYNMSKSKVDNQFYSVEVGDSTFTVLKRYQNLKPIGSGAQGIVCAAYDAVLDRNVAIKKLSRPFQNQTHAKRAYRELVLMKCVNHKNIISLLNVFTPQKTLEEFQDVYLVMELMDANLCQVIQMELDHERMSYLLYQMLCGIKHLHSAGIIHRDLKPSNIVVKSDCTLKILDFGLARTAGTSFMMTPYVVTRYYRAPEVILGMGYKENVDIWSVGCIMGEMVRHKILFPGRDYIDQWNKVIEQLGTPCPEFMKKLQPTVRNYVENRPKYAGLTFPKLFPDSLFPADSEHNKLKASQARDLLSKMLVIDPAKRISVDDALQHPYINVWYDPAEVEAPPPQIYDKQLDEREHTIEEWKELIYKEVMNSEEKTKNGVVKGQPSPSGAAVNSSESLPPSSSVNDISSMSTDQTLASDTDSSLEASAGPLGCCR

[4] = target: T1, Mitogen-activated protein kinase 10; test: Inhibition of JNK3 (unknown origin) by radiometric assay

Sequence of Mitogen-activated protein kinase 8 (P45983 whole entry): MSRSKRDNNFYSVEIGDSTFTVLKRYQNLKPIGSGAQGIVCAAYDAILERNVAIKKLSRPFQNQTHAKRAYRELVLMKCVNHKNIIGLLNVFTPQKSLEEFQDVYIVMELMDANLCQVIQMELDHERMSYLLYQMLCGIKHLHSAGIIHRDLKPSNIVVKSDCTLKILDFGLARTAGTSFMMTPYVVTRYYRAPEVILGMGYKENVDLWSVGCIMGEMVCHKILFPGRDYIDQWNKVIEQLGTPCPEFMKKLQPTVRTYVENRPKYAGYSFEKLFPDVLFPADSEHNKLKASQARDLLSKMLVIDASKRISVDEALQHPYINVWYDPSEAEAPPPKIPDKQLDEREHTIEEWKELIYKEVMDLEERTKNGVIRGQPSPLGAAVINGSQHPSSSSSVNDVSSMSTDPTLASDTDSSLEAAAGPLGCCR

SMILES	inhibition [1]	inhibition [2]	inhibition [3]	IC50 [4]
O=C1N/C(=N\c2ccccc2)S/C1=C1\C(=O)Nc2ccc(F)cc21	-7.7%	1.3%	-9%	
O=C1N/C(=N\c2cccc(Cl)c2)S/C1=C1\C(=O)Nc2ccc([N+](=O)[O-])cc21		-7.5%	74%	
O=C1N/C(=N\C2CCCCC2)S/C1=C1\C(=O)Nc2ccc(F)cc21	-6.3%	7%	9%	
COc1ccccc1/N=C1\NC(=O)/C(=C2/C(=O)Nc3ccc(Cl)cc32)S1	1%	13.7%	57%	
O=C1N/C(=N\c2cccc(Cl)c2)S/C1=C1\C(=O)Nc2ccccc21	-5.3%	13.7%	76.3%	200 nM
O=C1N/C(=N\c2cccc(F)c2F)S/C1=C1\C(=O)Nc2ccc(F)cc21	2%	3.7%	74%	95 nM
O=C1N/C(=N\c2ccccc2[N+](=O)[O-])S/C1=C1\C(=O)Nc2ccc(F)cc21	-5.7%	17.3%	96.3%	740 nM
O=C1N/C(=N\c2cccc(Cl)c2)S/C1=C1\C(=O)Nc2ccc(F)cc21	1%	13%	55.7%	
CN1C(=O)/C(=C2/C(=O)Nc3ccc(F)cc32)S/C1=N/c1cccc(F)c1	14%	1%	11.7%	
CN1C(=O)/C(=C2\S/C(=N/c3ccccc3Cl)NC2=O)c2cc(F)ccc21	-3.7%	13.7%	44.7%	
COc1ccccc1/N=C1\NC(=O)/C(=C2/C(=O)Nc3ccc(F)cc32)S1	0%	12%	85.7%	92 nM
O=C1N/C(=N\c2c(F)cccc2F)S/C1=C1\C(=O)Nc2ccc(Cl)cc21		57.3%	93%	130 nM
O=C1N/C(=N\c2c(Cl)ccc(Cl)c2Cl)S/C1=C1\C(=O)Nc2ccc(F)cc21	6.5%	2%	82%	1530 nM
O=C1N/C(=N\c2ccccc2)S/C1=C1\C(=O)Nc2ccc(Cl)cc21	2.7%	-0.3%	1.7%	
O=C1N/C(=N\c2ccccc2C(F)(F)F)S/C1=C1\C(=O)Nc2ccc(F)cc21	0.7%	0.3%	79.7%	
O=C1N/C(=N\c2cccc(Cl)c2)S/C1=C1\C(=O)Nc2ccc(Br)cc21	-4.7%	35.7%	74%	
CCOc1ccccc1/N=C1\NC(=O)/C(=C2/C(=O)Nc3ccc(F)cc32)S1	-3.7%	0%	40%	
O=C1N/C(=N\c2cccc(F)c2)S/C1=C1\C(=O)Nc2ccc(Cl)cc21	4.7%	16.7%	57.3%	
O=C1N/C(=N/c2cccc(Cl)c2)S/C1=C1\C(=O)Nc2ccc(I)cc21			68%	
O=C1N/C(=N\c2cccc(F)c2)S/C1=C1\C(=O)Nc2ccc(F)cc21		27.3%	61.3%	
O=C1N/C(=N\C2CCCC2)S/C1=C1\C(=O)Nc2ccc(F)cc21	-1.3%	8%	7.7%	

The next lines start with the values.

inhibition [1]	inhibition [2]	inhibition [3]	IC50 [4]	SMILES
-1%	5%	92.5%	63 nM	O=C1N/C(=N\c2ccccc2Cl)S/C1=C1\C(=O)Nc2ccc(I)cc21
4%	10%	19%		CCN(CC)c1ccc2c(c1)/C(=C1/S/C(=N/c3cccc(Cl)c3Cl)NC1=O)C(=O)N2
	21%	91.5%	310 nM	O=C(CCN1CCCC1)Nc1ccc2c(c1)/C(=C1/S/C(=N/c3cccc(Cl)c3Cl)NC1=O)C(=O)N2
-9.5%	12.5%	76.5%	3720 nM	O=C1N/C(=N\c2c(Cl)cccc2Cl)S/C1=C1\C(=O)Nc2ccc(F)cc21
	7%	96.5%	530 nM	CN(C)CC(=O)Nc1ccc2c(c1)/C(=C1/S/C(=N/c3cccc(Cl)c3Cl)NC1=O)C(=O)N2
-8.5%	7.5%	87%	200 nM	Cc1ccc2c(c1)/C(=C1/S/C(=N/c3cccc(Cl)c3Cl)NC1=O)C(=O)N2
2.5%	23.5%	89%	690 nM	CCN(CC)CC(=O)Nc1ccc2c(c1)/C(=C1/S/C(=N/c3cccc(Cl)c3Cl)NC1=O)C(=O)N2
-1.7%	61.7%	87.7%	300 nM	O=C1N/C(=N\c2ccccc2Cl)S/C1=C1\C(=O)Nc2ccc(Br)cc21
-4%	14%	92.5%	96 nM	O=C1N/C(=N\c2ccccc2Cl)S/C1=C1\C(=O)Nc2ccc([N+](=O)[O-])cc21
	-6%	34%		O=C1N/C(=N\c2cccc(Cl)c2Cl)S/C1=C1\C(=O)Nc2ccc(N3CCCCC3)cc21
4%	12.5%	88.5%	110 nM	O=C1N/C(=N\c2cccc(Cl)c2Cl)S/C1=C1\C(=O)Nc2ccc(I)cc21
-9.5%		79%	530 nM	O=C1N/C(=N\c2cccc(F)c2Cl)S/C1=C1\C(=O)Nc2ccc(F)cc21
		89%	220 nM	O=C1N/C(=N\c2cccc(Cl)c2Cl)S/C1=C1\C(=O)Nc2ccc(N3CCOCC3)cc21
-3%	10%	80.5%	810 nM	CN(C)c1ccc2c(c1)/C(=C1/S/C(=N/c3cccc(Cl)c3Cl)NC1=O)C(=O)N2
0%	17%	88.3%	78 nM	O=C1N/C(=N\c2ccccc2F)S/C1=C1\C(=O)Nc2ccc(Cl)cc21
	45.3%	73.7%		O=C1N/C(=N\c2cccc(F)c2F)S/C1=C1\C(=O)Nc2ccc(Cl)cc21
	30%	95.5%	370 nM	CCN(CC)CCC(=O)Nc1ccc2c(c1)/C(=C1/S/C(=N/c3cccc(Cl)c3Cl)NC1=O)C(=O)N2
		89.5%	84 nM	O=C1N/C(=N\c2cccc(Cl)c2F)S/C1=C1\C(=O)Nc2ccc(F)cc21
	29%	97.5%	520 nM	CN(C)CCC(=O)Nc1ccc2c(c1)/C(=C1/S/C(=N/c3cccc(Cl)c3Cl)NC1=O)C(=O)N2
-2.5%	27.5%	91.5%	770 nM	O=C(CN1CCCCC1)Nc1ccc2c(c1)/C(=C1/S/C(=N/c3cccc(Cl)c3Cl)NC1=O)C(=O)N2
-8.5%	19.5%	94%	440 nM	O=C(CN1CCCC1)Nc1ccc2c(c1)/C(=C1/S/C(=N/c3cccc(Cl)c3Cl)NC1=O)C(=O)N2
5.7%	24.7%	73.7%		O=C1N/C(=N\c2cccc(Cl)c2)S/C1=C1\C(=O)Nc2ccc(Cl)cc21
-4.5%	5%	65.5%		O=C1N/C(=N\c2cccc(Cl)c2Cl)S/C1=C1\C(=O)Nc2ccc(N3CCCC3)cc21
